The results in this text go back to patent US20230212171A1, “ALLOSTERIC EGFR INHIBITORS AND METHODS OF USE THEREOF” (Dana-Farber Cancer Institute, Inc., priority 2020, published 2023).

The term IC50 denotes the concentration that gives 50% inhibition. A low value points to higher potency.

One test deals with EGFR L858R (Homo sapiens, UniProt P00533, L858R). In words: HTRF-based EGFR biochemical assay (L858R). As to conditions: enzyme 0.1 nM, ATP 100 µM, 30 min preincubation. The procedure: (§1) EGFR biochemical activity measurements were carried out using the homogeneous time-resolved fluorescence (HTRF) assay (Cisbio). Inhibitors and DMSO normalizations were first dispensed to empty black low-volume 384-well plates (Corning) with D300 digital liquid dispenser (HP). All reactions were carried out at room temperature and solutions were added to plates with a Multidrop Combi Reagent Dispenser (ThermoFisher). The reaction mixture (10 µL final volume) contained 1 µM tyrosine kinase peptide-biotin substrate and mutant EGFR in a reaction buffer (50 mM HEPES pH 7.0, 5 mM MgCl2, 1 mM MnCl2, 0.01% BSA, 2 mM TCEP, 0.1 mM NaVO4). Enzyme concentrations were adjusted to accommodate varying kinase activities (L858R 0.1 nM, L858R/T790M 0.02 nM). Enzyme reaction solution (2× concentrations, 5 µL) was added to 384-well plates containing compounds and incubated for 30 mins. Enzyme reactions were initiated with the addition of 5 µL of ATP to a final concentration of 100 µM and reacted for 20 mins. Reactions were quenched with the addition of 10 µL of phospho-tyrosine antibody-Europium(III) cryptate (1-to-180 volume ratio) and Streptavidin-XL665 (46.7 nM) in EDTA-containing detection buffer, then incubated at room temperature for 1 hour, and read with a PHERAstar plate reader (excitation = 337 nm, emission = 620 nm and 665 nm). IC50 values were determined by inhibition curves (11-point curves from 1.0 µM to 0.130 nM or 23-point curves from 1.0 µM to 0.130 pM) in triplicate with non-linear least squares fit in GraphPad Prism 7.0d.
Sequence of EGFR L858R (P00533 25-1210 L858R): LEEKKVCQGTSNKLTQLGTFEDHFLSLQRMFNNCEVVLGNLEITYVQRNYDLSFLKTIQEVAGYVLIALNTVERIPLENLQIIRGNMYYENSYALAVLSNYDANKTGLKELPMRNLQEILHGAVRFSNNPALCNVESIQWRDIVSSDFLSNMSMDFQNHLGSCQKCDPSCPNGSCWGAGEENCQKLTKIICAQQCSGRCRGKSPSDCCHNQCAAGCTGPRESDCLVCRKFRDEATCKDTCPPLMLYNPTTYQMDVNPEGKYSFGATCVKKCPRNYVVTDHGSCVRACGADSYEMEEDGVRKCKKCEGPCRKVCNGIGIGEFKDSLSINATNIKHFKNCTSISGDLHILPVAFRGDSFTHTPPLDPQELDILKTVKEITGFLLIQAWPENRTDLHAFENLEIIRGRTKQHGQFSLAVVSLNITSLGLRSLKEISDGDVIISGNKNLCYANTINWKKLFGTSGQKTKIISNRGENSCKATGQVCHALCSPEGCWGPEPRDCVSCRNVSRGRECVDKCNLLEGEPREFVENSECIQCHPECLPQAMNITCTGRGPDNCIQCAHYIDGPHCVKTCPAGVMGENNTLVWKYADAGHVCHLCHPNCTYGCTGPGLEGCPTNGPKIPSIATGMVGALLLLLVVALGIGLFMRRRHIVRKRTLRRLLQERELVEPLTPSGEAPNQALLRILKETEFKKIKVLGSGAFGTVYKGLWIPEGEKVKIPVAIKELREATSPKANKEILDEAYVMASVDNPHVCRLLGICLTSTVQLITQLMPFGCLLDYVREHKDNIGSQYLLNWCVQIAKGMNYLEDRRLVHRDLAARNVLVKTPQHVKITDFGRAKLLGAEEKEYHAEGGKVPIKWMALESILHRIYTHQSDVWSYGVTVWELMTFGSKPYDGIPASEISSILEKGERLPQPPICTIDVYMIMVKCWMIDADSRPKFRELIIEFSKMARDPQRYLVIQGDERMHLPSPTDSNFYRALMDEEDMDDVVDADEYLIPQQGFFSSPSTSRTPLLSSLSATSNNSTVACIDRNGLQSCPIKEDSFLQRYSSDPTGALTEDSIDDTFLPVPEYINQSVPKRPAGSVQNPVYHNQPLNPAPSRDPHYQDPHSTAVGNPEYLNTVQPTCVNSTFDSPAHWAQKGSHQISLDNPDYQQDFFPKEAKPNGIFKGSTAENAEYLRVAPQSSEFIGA

In the next test the target is EGFR L858R/T790M (Homo sapiens, UniProt P00533, L858R/T790M). In words: HTRF-based EGFR biochemical assay (L858R/T790M). As to conditions: enzyme 0.02 nM, ATP 100 µM, 30 min preincubation. The procedure: as §1
Sequence of EGFR L858R/T790M (P00533 25-1210 T790M/L858R): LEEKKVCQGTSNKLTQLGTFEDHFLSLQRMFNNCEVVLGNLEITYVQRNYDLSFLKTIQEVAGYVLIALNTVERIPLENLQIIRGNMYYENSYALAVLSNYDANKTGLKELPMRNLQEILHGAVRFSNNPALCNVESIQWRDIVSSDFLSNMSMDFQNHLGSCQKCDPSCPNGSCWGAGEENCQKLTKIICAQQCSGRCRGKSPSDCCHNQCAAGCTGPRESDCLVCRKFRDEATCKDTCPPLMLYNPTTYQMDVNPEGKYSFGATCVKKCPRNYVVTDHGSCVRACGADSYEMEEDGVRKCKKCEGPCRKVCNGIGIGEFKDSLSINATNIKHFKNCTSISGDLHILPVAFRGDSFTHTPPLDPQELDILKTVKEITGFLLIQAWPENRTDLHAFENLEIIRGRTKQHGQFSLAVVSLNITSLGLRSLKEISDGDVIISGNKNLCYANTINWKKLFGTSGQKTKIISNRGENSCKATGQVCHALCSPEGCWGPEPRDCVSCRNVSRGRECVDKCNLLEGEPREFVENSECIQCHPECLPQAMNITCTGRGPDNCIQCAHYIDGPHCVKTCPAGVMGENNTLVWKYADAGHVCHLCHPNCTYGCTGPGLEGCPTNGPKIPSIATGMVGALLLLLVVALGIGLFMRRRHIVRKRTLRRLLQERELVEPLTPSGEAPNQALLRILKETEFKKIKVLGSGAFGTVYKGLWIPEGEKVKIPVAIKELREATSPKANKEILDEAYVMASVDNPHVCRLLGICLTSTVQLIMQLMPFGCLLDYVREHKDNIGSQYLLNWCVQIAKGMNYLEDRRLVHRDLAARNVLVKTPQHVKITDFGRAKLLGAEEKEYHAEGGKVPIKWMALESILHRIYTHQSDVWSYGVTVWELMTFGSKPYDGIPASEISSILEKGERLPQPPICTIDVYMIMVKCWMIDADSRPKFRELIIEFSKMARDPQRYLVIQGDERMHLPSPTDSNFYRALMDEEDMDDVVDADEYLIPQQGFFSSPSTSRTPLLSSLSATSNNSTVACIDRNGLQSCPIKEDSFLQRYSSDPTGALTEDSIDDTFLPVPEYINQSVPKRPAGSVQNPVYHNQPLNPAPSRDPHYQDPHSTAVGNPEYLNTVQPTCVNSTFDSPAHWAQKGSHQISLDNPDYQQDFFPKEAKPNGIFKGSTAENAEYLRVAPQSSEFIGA

`CN1CCC(c2ccc(-c3cc4ccn([C@H](c5nc6ccccc6[nH]5)c5cc(F)ccc5O)c(=O)c4s3)cc2)CC1` (single isomer, unassigned) [Compound 016]: the IC50 is 41 nM against EGFR L858R and 17 nM against EGFR L858R/T790M.

Turning to `CN1CCC(c2ccc(-c3cc4c(F)cn(C(C(=O)Nc5nccs5)c5cc(F)ccc5O)c(=O)c4s3)cc2)CC1` (stereo not shown) [Compound 019, 2-(4-Fluoro-2-(4-(1-Methylpiperidin-4-Yl)Phenyl)-7-Oxothieno[2,3-c]Pyridin-6(7H)-Yl)-2-(5-Fluoro-2-Hydroxyphenyl)-N-(Thiazol-2-Yl)Acetamide], the IC50 against EGFR L858R is 0.7 nM; against EGFR L858R/T790M it was 0.5 nM.

Consider `CN1CCC(c2ccc(-c3cc4c(F)cn(C(c5nc6ccccc6[nH]5)c5cc(F)ccc5O)c(=O)c4s3)cc2)CC1` (stereo not shown) [Compound 020, 6-((1H-Benzo[d]Imidazol-2-Yl)(5-Fluoro-2-Hydroxyphenyl)Methyl)-4-Fluoro-2-(4-(1-methylpiperidin-4-Yl)Phenyl)Thieno[2,3-c]Pyridin-7(6H)-One], for which the IC50 against EGFR L858R and at EGFR L858R/T790M was 0.2 nM throughout.

Turning to `CN1CCC(c2ccc(-c3nc4c(s3)C(=O)N(C(C(=O)Nc3nccs3)c3cc(F)ccc3O)CC4)cc2)CC1` (stereo not shown) [Compound 021, 2-(5-Fluoro-2-hydroxyphenyl)-2-(2-(4-(1-methylpiperidin-4-yl)phenyl)-4-oxo-6,7-dihydrothiazolo[5,4-c]pyridin-5(4H)-yl)-N-(thiazol-2-yl)acetamide], the IC50 was 2 nM on EGFR L858R and 0.6 nM at EGFR L858R/T790M.

In the case of `CN1CCC(c2ccc(-c3nc4c(s3)C(=O)N(C(c3nc5ccccc5[nH]3)c3cc(F)ccc3O)CC4)cc2)CC1` (stereo not shown) [Compound 022, 5-((1H-Benzo[d]imidazol-2-yl)(5-fluoro-2-hydroxyphenyl)methyl)-2-(4-(1-methylpiperidin-4-yl)phenyl)-6,7-dihydrothiazolo[5,4-c]pyridin-4(5H)-one], the values for the IC50 at EGFR L858R and against EGFR L858R/T790M were 12 nM and 11 nM, respectively.

For the compound `CN1CCC(c2ccc(-c3nc4ccn(C(c5nc6ccccc6[nH]5)c5cc(F)ccc5O)c(=O)c4s3)cc2)CC1` (stereo not shown) [Compound 023, 5-((1H-Benzo[d]imidazol-2-yl)(5-fluoro-2-hydroxyphenyl)methyl)-2-(4-(1-methylpiperidin-4-yl)phenyl)thiazolo[5,4-c]pyridin-4(5H)-one], the IC50 on EGFR L858R worked out at 7 nM; on EGFR L858R/T790M, 3 nM.

Turning to `[2H]C(c1nc2ccccc2[nH]1)(c1cc(F)ccc1O)n1ccc2cc(-c3ccc(C4CCN(C)CC4)cc3)sc2c1=O` (stereo not shown) [Compound 024, 6-((1H-Benzo[d]Imidazol-2-yl)(5-Fluoro-2-Hydroxyphenyl)Methyl-d)-2-(4-(1-Methylpiperidin-4-Yl)Phenyl)Thieno[2,3-c]Pyridin-7(6H)-One], the IC50 on EGFR L858R came to 2 nM; on EGFR L858R/T790M it was 0.7 nM.

With `CN1CCC(c2ccc(-c3cc4ccn(C(c5ccccc5)c5cc6ccccc6[nH]5)c(=O)c4s3)cc2)CC1` (stereo not shown) [Compound 025, 6-((1H-Indol-2-Yl)(Phenyl)Methyl)-2-(4-(1-Methylpiperidin-4-Yl)Phenyl)Thieno[2,3-c]Pyridin-7(6H)-One], the IC50 against EGFR L858R amounted to 9 nM; on EGFR L858R/T790M, 7 nM.
